Data on 23 compounds can be found in patent publication US9169247B2, “Tetrahydro-beta-carboline derivatives, synthesis and use thereof” (Southern Research Institute, priority 2009, dated 2015).

Read-outs that look alike come from different tables or passages of the source.

The test system of series [1] is human MDA-MB-231 breast tumor cells. As to the kind of experiment: Growth assay (Cell Titer Glo). The format is cell-based. To be noted: for inhibition at 10 µM / % Growth Inhibition at 10 μM: mean +/− spread. The method, then:
(§1) All human tumor cell lines were obtained from ATCC and grown under standard cell culture conditions at 37° C. in a humidified atmosphere with 5% CO2. Cells were grown in RPMI 1640 supplemented with 5% fetal bovine serum 2 mM glutamine, 100 units/ml penicillin, 100 units/ml streptomycin, and 0.25 μg/ml amphotericin. Cells were harvested at 70 to 90% confluence with trypsin/EDTA and used immediately Cell count and viability was determined by Trypan blue staining followed by hemocytometry. Only cultures displaying >95% cell viability were used for experiments. HMEC were grown according to the specifications from the supplier (Lonzo).
(§2) Tissue culture microtiter 96-well plates were seeded with cells at a density of 5,000 cells/well. The plates were incubated for 18-24 hours prior to any treatment. All test compounds were solubilized in 100% DMSO and diluted with media to obtain a final DMSO concentration of 0.1%. Cell viability was measured 72 hours after treatment by the Cell Titer Glo Assay (Promega), which is a luminescent assay that is an indicator of live cells as a function of metabolic activity and ATP content. The assay was performed according to manufacturer's specifications. Luminescence was measured by a Perkin Elmer Victor® multi-label plate reader.^6
(§3) Dose response curves were analyzed using Prism™ 4 software (GraphPad) to calculate IC50 values using a four parameter logistic equation.
A general note: Cellular ATP, detected with luciferase, serves as a proxy for viable cell number.

Series [2] deals with HT-29. As to the kind of experiment: Growth assay (Cell Titer Glo). The format is cell-based, human. The following applies: HT-29 colon. The procedure: Compounds 2a-h were tested for tumor cell growth inhibitory activity using the human breast MDA-MB-231 and ZR75-1 tumor cell lines and the colon CACO-2, SW-1116, and HT-29 tumor cell lines.
as §1, §2, §3

Where [3] appears, read: Homo sapiens, MDA-MB-231, MDA-MB-231.
The mark [4] stands for this setting: Homo sapiens, MDA-MB-231, MDA-MB-231, Tables 1 and 2, read-out: Growth Inhibition IC50, μM (95% CI).
The mark [5] stands for this setting: Homo sapiens, MDA-MB-231, 72 h, MDA-MB-231 breast, 72 h, Tables 3-5, read-out: IC50 value, μM, growth.
Where [6] appears, read: MDA-MB-231, Tables 1 and 2, read-out: Growth Inhibition IC50, μM (95% CI).
Setting [7] is: MDA-MB-231 breast, 72 h, Tables 3-5, read-out: IC50 value, μM, growth.

The term melting point denotes the temperature, or range, at which the solid turns liquid. Consider `COC(=O)[C@H]1Cc2c([nH]c3ccccc23)[C@@H](c2cc(OC)ccc2OC)N1` [Compound 1e, (1R,3R) Methyl 1-(2,5-dimethoxyphenyl)-2,3,4,9-tetrahydro-1H-β-carboline-3-carboxylate], for which the melting point lay in the range of 102 to 105 °C.

On to `COC(=O)[C@H]1Cc2c([nH]c3ccccc23)[C@H](c2cc(OC)ccc2OC)N1` [Compound 1f, (1S,3R) Methyl 1-(2,5-dimethoxyphenyl)-2,3,4,9-tetrahydro-1H-β-carboline-3-carboxylate], for which the melting point was in the range of 139 to 142 °C.

`COC(=O)[C@@H]1Cc2c([nH]c3ccccc23)[C@H](c2cc(OC)ccc2OC)N1` [Compound 1g, (1S,3S) Methyl 1-(2,5-dimethoxyphenyl)-2,3,4,9-tetrahydro-1H-β-carboline-3-carboxylate] registered a melting point of 100 to 102 °C.

For the compound `COC(=O)[C@@H]1Cc2c([nH]c3ccccc23)[C@@H](c2cc(OC)ccc2OC)N1` [Compound 1h, (1R,3S) Methyl 1-(2,5-dimethoxyphenyl)-2,3,4,9-tetrahydro-1H-β-carboline-3-carboxylate], the melting point lay within 138 to 141 °C.

The inhibition is the relative decrease from the control value, in per cent. A lower inhibition goes with a weak effect. Compound `COC(=O)[C@H]1Cc2c([nH]c3ccccc23)[C@@H](c2ccc(Cl)cc2Cl)N1` [Compound 1i, (1R,3R) Methyl-1-(2,4-dichlorophenyl)-2,3,4,9-tetrahydro-1H-β-carboline-3-carboxylate] gave a melting point of 88 to 92 °C. Testing at 10 µM in series [1] (setting [3]) gave an inhibition of 29%.

As a reminder, the IC50 is the midpoint of a concentration-inhibition curve. Turning to `COC(=O)[C@H]1Cc2c([nH]c3ccccc23)[C@H](c2ccc(Cl)cc2Cl)N1` [Compound 1j, (1S,3R) Methyl 1-(2,4-dichlorophenyl)-2,3,4,9-tetrahydro-1H-β-carboline-3-carboxylate], the melting point lay in the range of 130 to 133 °C. In addition, the inhibition at 10 µM in series [1] (setting [3]) was 78%. Further, the IC50 in series [1] (setting [4]) was determined as 6.73 µM.

`COC(=O)[C@@H]1Cc2c([nH]c3ccccc23)[C@H](c2ccc(Cl)cc2Cl)N1` [Compound 1k, (1S,3S)Methyl 1-(2,4-dichlorophenyl)-2,3,4,9-tetrahydro-1H-β-carboline-3-carboxylate] came in with a melting point of 90 to 92 °C. The inhibition at 10 µM in series [1] (setting [3]) was found to be 50%.

`COC(=O)[C@@H]1Cc2c([nH]c3ccccc23)[C@@H](c2ccc(Cl)cc2Cl)N1` [Compound 1l, (1R,3S)Methyl 1-(2,4-dichlorophenyl)-2,3,4,9-tetrahydro-1H-β-carboline-3-carboxylate] came in with a melting point of 128 to 130 °C. In addition, testing at 10 µM in series [1] (setting [3]) gave an inhibition of 28%.

As to `COC(=O)[C@H]1Cc2c([nH]c3ccccc23)[C@@H](c2ccc(Cl)c(Cl)c2)N1` [Compound 1m, (1R,3R) Methyl-1-(3,4-dichlorophenyl)-2,3,4,9-tetrahydro-1H-β-carboline-3-carboxylate], the melting point was in the range of 90 to 92 °C. In series [1] (setting [3]), this compound had an inhibition at 10 µM of 43%.

Consider `COC(=O)[C@H]1Cc2c([nH]c3ccccc23)[C@H](c2ccc(Cl)c(Cl)c2)N1` [Compound 1n, (1S,3R) Methyl-1-(3,4-dichlorophenyl)-2,3,4,9-tetrahydro-1H-β-carboline-3-carboxylate], for which the melting point lay in the range of 140 to 143 °C. The inhibition at 10 µM in series [1] (setting [3]) came to 100%. Further, the IC50 in series [1] (setting [4]) is 4.62 µM.

Consider `COC(=O)[C@@H]1Cc2c([nH]c3ccccc23)[C@H](c2ccc(Cl)c(Cl)c2)N1` [Compound 1o, (1S,3S) Methyl-1-(3,4-dichlorophenyl)-2,3,4,9-tetrahydro-1H-β-carboline-3-carboxylate], for which the melting point lay in the range of 88 to 91 °C. Further, in series [1] (setting [3]), 10 µM produced 62% inhibition. The IC50 in series [1] (setting [4]) stood at 6.98 µM.

With `COC(=O)[C@@H]1Cc2c([nH]c3ccccc23)[C@@H](c2ccc(Cl)c(Cl)c2)N1` [Compound 1p, (1R,3S)Methyl-1-(3,4-dichlorophenyl)-2,3,4,9-tetrahydro-1H-β-carboline-3-carboxylate], the melting point was 139 to 142 °C. In series [1] (setting [3]), this compound returned an inhibition at 10 µM of 48%.

Consider `COC(=O)[C@H]1Cc2c([nH]c3ccccc23)[C@@H](c2c(Cl)cccc2Cl)N1` [Compound 1q, (1R,3R) Methyl 1-(2,6-dichlorophenyl)-2,3,4,9-tetrahydro-1H-β-carboline-3 carboxylate], for which the melting point lay in the range of 102 to 105 °C.

In the case of `COC(=O)[C@@H]1Cc2c([nH]c3ccccc23)[C@H](c2c(Cl)cccc2Cl)N1` [Compound 1r, (1S,3S) Methyl 1-(2,6-dichlorophenyl)-2,3,4,9-tetrahydro-1H-β-carboline-3-carboxylate], the melting point lay within 101 to 103 °C. The compound further registered an inhibition at 10 µM in series [1] (setting [3]) of 52%.

For the compound `COC(=O)[C@H]1Cc2c([nH]c3ccccc23)[C@@H](c2ccc(Cl)cc2Cl)N1C(=O)CCl` [Compound 2i, (1R,3R) Methyl 1-(2,4-dichlorophenyl)-2-(2-chloroacetyl)-2,3,4,9-tetrahydro-1H-β-carboline-3-carboxylate], the melting point is 215 to 218 °C. Also, in series [1] (setting [5]), the half-inhibitory concentration (IC50) turned out to be 0.56 µM. The compound further registered an inhibition at 10 µM in series [1] (setting [3]) of 98%. Moreover, the IC50 in series [1] (setting [4]) is 0.56 µM.

Take `COC(=O)[C@@H]1Cc2c([nH]c3ccccc23)[C@H](c2ccc(Cl)cc2Cl)N1C(=O)CCl` [Compound 2k, (1S,3S) Methyl 1-(2,4dichlorophenyl)-2-(2-chloroacetyl)-2,3,4,9-tetrahydro-1H-β-carboline-3-carboxylate]: the melting point was in the range of 215 to 218 °C. Also, the IC50 in series [1] (setting [5]) was 0.38 µM. Moreover, at 10 µM the inhibition in series [1] (setting [3]) was 55%.

Turning to `COC(=O)[C@@H]1Cc2c([nH]c3ccccc23)[C@@H](c2ccc(Cl)cc2Cl)N1C(=O)CCl` [Compound 2l, (1R,3S) Methyl 1-(2,4-dichlorophenyl)-2-(2-chloroacetyl)-2,3,4,9-tetrahydro-1H-β-carboline-3-carboxylate], the melting point is 109 to 112 °C. Also, the IC50 in series [1] (setting [5]) stood at 1.24 µM. In series [1] (setting [3]), this compound registered an inhibition at 10 µM of 98%. Besides, in series [1] (setting [4]), the IC50 is 1.24 µM.

Take `COC(=O)[C@H]1Cc2c([nH]c3ccccc23)[C@@H](c2ccc(Cl)c(Cl)c2)N1C(=O)CCl` [Compound 2m, (1R,3R) Methyl 1-(3,4-dichlorophenyl)-2-(2-chloroacetyl)-2,3,4,9-tetrahydro-1H-β-carboline-3-carboxylate]: the melting point was 283 to 285 °C. The concentration for half-maximal inhibition (IC50) in series [1] (setting [5]) is over 10 µM.

`COC(=O)[C@H]1Cc2c([nH]c3ccccc23)[C@H](c2ccc(Cl)c(Cl)c2)N1C(=O)CCl` [Compound 2n, (1S,3R) Methyl 1-(3,4dichlorophenyl)-2-(2-chloroacetyl)-2,3,4,9-tetrahydro-1H-β-carboline-3-carboxylate] had a melting point of 163 to 165 °C. Moreover, the IC50 in series [1] (setting [5]) was 1.2 µM. Also, the inhibition at 10 µM in series [1] (setting [3]) worked out at 50%. The compound also displayed an IC50 in series [2] (Homo sapiens, HT-29, 72 h) of over 10 µM.

As for `COC(=O)[C@@H]1Cc2c([nH]c3ccccc23)[C@H](c2ccc(Cl)c(Cl)c2)N1C(=O)CCl` [Compound 2o, (1S,3S) Methyl 1-(3,4-dichlorophenyl)-2-(2-chloroacetyl)-2,3,4,9-tetrahydro-1H-β-carboline-3-carboxylate], the melting point is 283 to 284 °C. Besides, the IC50 in series [1] (setting [5]) is over 10 µM. The inhibition at 10 µM in series [1] (setting [3]) amounted to 43%.

For `COC(=O)[C@@H]1Cc2c([nH]c3ccccc23)[C@@H](c2ccc(Cl)c(Cl)c2)N1C(=O)CCl` [Compound 2p, (1R,3S) Methyl 1-(3,4-dichloro-phenyl)-2 (2-chloroacetyl)-2,3,4,9-tetrahydro-1H-β-carboline-3-carboxylate], the melting point was 162 to 165 °C. The IC50 in series [1] (setting [5]) was over 10 µM. In series [1] (setting [3]), testing at 10 µM gave an inhibition of 55%. Moreover, in series [2] (Homo sapiens, HT-29, 72 h), the IC50 was over 10 µM.

`COC(=O)C1Cc2c([nH]c3ccccc23)C(c2c(Cl)cccc2Cl)N1C(=O)CCl` [Compound 2q, (1R,3R) Methyl 1-(2,6-dichlorophenyl)-2-(2-chloroacetyl)-2,3,4,9-tetrahydro 1H-β-carboline-3-carboxylate] yielded a melting point of 147 to 150 °C. Also, in series [1] (MDA-MB-231), the “% Growth Inhibition at 10 μM” value was 99 +/− 0.01%. For the same compound, the IC50 in series [1] (setting [6]) turned out to be 0.05 µM. Also, the IC50 in series [1] (setting [7]) was determined as 0.04 µM. Further, it took 1.5 µM to reach half-maximal inhibition in series [2] (Homo sapiens, HT-29, 72 h) (IC50).

With `COC(=O)C1Cc2c([nH]c3ccccc23)C(c2c(Cl)cccc2Cl)N1C(=O)CCl` [Compound 2r, (1S,3S) Methyl 1-(2,6-dichlorophenyl)-2-(2-chloroacetyl)-2,3,4,9-tetrahydro-1H-β-carboline-3-carboxyl], the melting point is 153 to 156 °C. In addition, in series [1] (MDA-MB-231), the “% Growth Inhibition at 10 μM” value is on record as 24 +/− 0.54%. The IC50 in series [1] (setting [6]) amounted to 0.42 µM. Also, the IC50 in series [1] (setting [7]) turned out to be 0.44 µM. In series [2] (72 h), the IC50 was 1 µM.
